According to patent publication US9387195B2, “Methods for treating diseases using isoindoline compounds” (Celgene Corporation, priority 2011, dated 2016):

Columns and labels:
IFN-α production [1] = test: IFN-α ELISA in CpG-A stimulated hPBMC (Example 18); assay type: cell-based, human; conditions: 1 μM CpG-A, 18 hours
Description: Human PBMCs (1×10^5 cells) were plated in 96-well plates (PBMCs) in RPMI media containing 10% FBS. Compounds were diluted with DMSO from a 4 mM stock of each compound to obtain different concentrations. Human PBMCs were pretreated with different concentrations of compounds for an hour prior stimulation. Cells were then stimulated with CpG-A ODN 2216 (1 μM) for 18 hours. […] The samples (Control E1 and Examples E2-E20) contained 1 μM CpG-A. Supernatant was collected after 18 hours. The IFN-α levels of samples were measured by the IFN-α ELISA obtained from PBL Interferon Source, Piscataway, N.J., known as Human IFN-alpha ELISA Kit. IFN-α levels of samples were assayed by the ELISA according to manufacturer's instructions. Inhibition of the production of IFN-α by individual compounds were determined in the CpG-A stimulated hPBMC cultures.

TNF-α production = test: TNF-α ELISA, CpG-A stimulated human PBMCs or pDCs (Example 15); assay type: cell-based
Description: (§1) The IFN-α and TNF-α levels were measured by enzyme-linked immunoabsorbant assay (ELISA) obtained from R&D System, Minneapolis, Minn., known as Human IFN-alpha ELISA Kit (PBL Interferon Source, Cat #41100-1) and Human TNF-alpha Quantikine ELISA Kit (ThermoScientific, Cat # EH3TNFA5) respectively. […] Compounds were diluted with DMSO (PBMCs) or media (pDCs) from a 4 mM stock of each compound to obtain different concentrations. Human PBMCs or pDCs were pretreated with different concentrations of compounds for an hour prior stimulation. Cells were then stimulated with 1 μM (PBMCs) or 10 μM (PDCs) CpG-A ODN 2216 for 18 hours. The samples with Compound (II) (0.25 μM, 0.5 μM and 1 μM) are labeled as Examples B1-B3; the samples with Compound (I) (0.25 μM, 0.5 μM and 1 μM) are labeled as Examples B4-B6; the samples with CC-930 (1.0 μM, 2.0 μM and 3.0 μM) are labeled as Examples B7-B9; and the samples with chloroquine (0.5 μM, 1.0 μM and 2.0 μM) are labeled as Examples B10-B12. Keratinocytes of samples (Examples B1-B12) cultured in the presence of pDCs were stimulated with CpG-A oligonucleotide. Two control experiments were done. The first control experiment (Control BB1) was done with similar procedures mentioned-above but without CpG-A stimulation and without the addition of inhibitors. The second control experiment (Control BB2) was done with similar procedures mentioned-above but without the addition of inhibitors. Supernatant was collected after 18 hours. IFN-α and TNF-α levels were assayed by ELISA according to manufacturer's instructions.

IFN-α production [2] = test: IFN-α ELISA, CpG-A stimulated human PBMCs or pDCs (Example 15); assay type: cell-based
Description: as §1

keratinocyte MxA [3] = test: pDC-keratinocyte co-culture with CpG-A stimulation, keratinocyte MxA level (Example 16); assay type: cell-based, human; conditions: for decrease in the keratinocyte MxA level: relative to Control BB2
Description: (§2) The Human pDC/HEKa Coculture involves stimulation with CpG-A oligodeoxynucleotide. CpG-A-stimulation would induce pDCs to secrete interferon-alpha (IFN-α) which in turn elicits increased expression of MxA protein from keratinocytes. HEKa were plated in 6-well plates at density of 1×10^5 cells/well and incubated overnight in a defined keratinocyte medium. The medium was removed in the next day and then 1.8×10^5 pDC cells, in defined pDC medium, were overlaid on the HEKa cells. Compound (II) was added to the medium to obtain final concentrations of 0.25 μM, 0.5 μM and 1 μM. One hour after the addition of Compound (II), CpG-A was added to each of the concentrations and then incubated overnight. Same samples from Example 15 were used here.
(§3) The cells were fixed and immunostained the co-cultures with antibodies to keratinocyte myxovirus resistance protein A (MxA) and Cytokeratin as follows using the ThermoScientific Cellomics High Content Screening (HCS) Readers using vHCS Scan Software.
(§4) Eighteen hours after the addition of Compound (II), cocultures were fixed for 30 minutes with BD fixation/permeabilization buffer, washed, and blocked with 2% normal goat serum/bovine serum albumin solution for an hour. Cocultures were then incubated overnight with primary antibodies to MxA and Cytokeratin. Cells were washed and incubated for an hour with Alexa anti-goat and anti-rabbit fluorescein (IgG1) or TRITC-conjugated (IgG) secondary antibodies. […] Cocultures were washed and incubated in 1X phosphate buffered saline (PBS) and plates scanned using Thermo Scientific ArrayScan VTI HCS Reader, a modular High Content Screening instrument designed for high-capacity automated fluorescence imaging and quantitative analysis of fixed and live cells. The output was analyzed using Cellomics Compartmental Analysis algorithm to quantitate fluorescence levels in the green and red channels. […] Mean fluorescence intensity levels of MxA and Cytokeratin of the samples were expressed as percentage of mean fluorescence intensity levels of MxA and cytokeratin of Control BB2. […]

keratinocyte cytokeratin = test: pDC-keratinocyte co-culture with CpG-A stimulation, cytokeratin level (Example 16); assay type: cell-based, human; conditions: relative to Control BB2
Description: as §2, §3, §4

keratinocyte MxA [4] = test: Human pDC/HEKa coculture with CpG-A stimulation, keratinocyte MxA level (Example 14); assay type: cell-based; conditions: relative to CpG-A stimulated Example A1
Description: as §2, with “CpG-A oligodeoxynucleotide 2216. The CpG-A stimulation” for “CpG-A oligodeoxynucleotide. CpG-A-stimulation”, “0.5 μM, 1” for “0.5”, “and 2” for “and 1”, “of these” for “of the”, “overnight.” for “overnight. Same samples from Example 15 were used here.”
as §3
Eighteen hours after the addition of Compound (II), cocultures were fixed for 30 minutes with BD fixation/permeabilization buffer, washed, and blocked with 2% normal goat serum/bovine serum albumin solution for an hour. Cocultures were then incubated overnight with primary antibodies to MxA and Cytokeratin. Cells were washed and incubated for an hour with Alexa anti-goat and anti-rabbit fluorescein (IgG1) or TRITC-conjugated (IgG) secondary antibodies. Nuclei were stained with DAPI or 4′,6-diamidino-2-phenylindole. Cocultures were washed and incubated in 1X phosphate buffered saline (PBS) and plates scanned using Thermo Scientific ArrayScan VTI HCS Reader, a modular High Content Screening instrument designed for high-capacity automated fluorescence imaging and quantitative analysis of fixed and live cells. The output was analyzed using Cellomics Compartmental Analysis algorithm to quantitate fluorescence levels in the green and red channels. Data was exported to Microsoft Excel worksheets. Mean fluorescence intensity levels of MxA and Cytokeratin of the samples were expressed as percentage of mean fluorescence intensity levels of MxA and cytokeratin of Example A1. Histograms were generated and statistical analysis was performed using GraphPad Prism v4.0 (GraphPad Software, Inc., San Diego, Calif.).
FIGS. 1-2 show the levels of keratinocyte MxA and cytokeratin of the samples averaged from four independent experiments relative to the keratinocyte MxA and cytokeratin levels of Example A1 with pDCs derived from separate donors. […]

cytokeratin = test: Human pDC/HEKa coculture with CpG-A stimulation, cytokeratin level (Example 14); assay type: cell-based; conditions: 0.25-2 μM; relative to Example A1
Description: The Human pDC/HEKa Coculture involves stimulation with CpG-A oligodeoxynucleotide 2216. The CpG-A stimulation would induce pDCs to secrete interferon-alpha (IFN-α) which in turn elicits increased expression of MxA protein from keratinocytes. HEKa were plated in 6-well plates at density of 1×10^5 cells/well and incubated overnight in a defined keratinocyte medium. The medium was removed in the next day and then 1.8×10^5 pDC cells, in defined pDC medium, were overlaid on the HEKa cells. Compound (II) was added to the medium to obtain final concentrations of 0.25 μM, 0.5 μM, 1 μM and 2 μM. […]
as §3
Eighteen hours after the addition of Compound (II), cocultures were fixed for 30 minutes with BD fixation/permeabilization buffer, washed, and blocked with 2% normal goat serum/bovine serum albumin solution for an hour. […] Cocultures were washed and incubated in 1X phosphate buffered saline (PBS) and plates scanned using Thermo Scientific ArrayScan VTI HCS Reader, a modular High Content Screening instrument designed for high-capacity automated fluorescence imaging and quantitative analysis of fixed and live cells. […]

[5] = Homo sapiens, PBMC, read-out: inhibition of the production of IFN-α
[6] = 0.25, 0.5 and 1 μM, relative to CpG-A stimulation (Control BB2)
[7] = 0.25, 0.5 and 1 μM, relative to CpG-A stimulation (Control BB2), P<0.0001
[8] = 1.0, 2.0 and 3.0 μM (Examples B7-B9), relative to Control BB2

CCN(CC)CCCC(C)Nc1ccnc2cc(Cl)ccc12 (stereo not drawn) [Chloroquine, chloroquine]
inhibition of the production of IFN-α (IFN-α production [1]; 5 μM, versus Control E1): induced inhibition
inhibition at 2 µM (TNF-α production; Homo sapiens, PBMC, read-out: inhibition of the production of TNF-α): ~50%
inhibition at 1 µM (IFN-α production [2]; [5]): ~75%
inhibition at 2 µM (IFN-α production [2]; [5]): ~75%

O=C1CCC(N2C(=O)c3ccccc3C2=O)C(=O)N1 (stereo not drawn) [thalidomide]
inhibition of the production of IFN-α (IFN-α production [1]; 10 μM, versus Control E1): did not affect

CCOc1cc(C(CS(C)(=O)=O)N2C(=O)c3cccc(NC(C)=O)c3C2=O)ccc1OC (single isomer, unassigned; (+)) [Compound (I), (+)-2-[1-(3-ethoxy-4-methoxyphenyl)-2-methylsulfonylethyl]-4-acetylaminoisoindoline-1,3-dione]
inhibition of the production of IFN-α (IFN-α production [1]; 0.5 μM, versus Control E1): significant inhibition
inhibition of the production of IFN-α (IFN-α production [1]; 5 μM, versus Control E1): significant inhibition
ability to inhibit the production of the keratinocyte MxA, among the compounds tested (keratinocyte MxA [3]; 0.25, 0.5 and 1 μM (Examples B4-B6)): greatest ability to inhibit
inhibition of the production of TNF-α (TNF-α production; [6]): inhibited
inhibition of the production of IFN-α (IFN-α production [2]; [7]): inhibited
effect on the keratinocyte cytokeratin (keratinocyte cytokeratin): no significant effect

CCN(CCO)CCCC(C)Nc1ccnc2cc(Cl)ccc12 (stereo not drawn) [hydroxychloroquine]
inhibition of the production of IFN-α (IFN-α production [1]; 5 μM, versus Control E1): induced inhibition

CCOc1cc([C@@H](CS(C)(=O)=O)N2Cc3cccc(NC(=O)C4CC4)c3C2=O)ccc1OC [Compound (II), Cyclopropyl{2-[(1S)-1-(3-ethoxy-4-methoxyphenyl)-2-(methylsulfonyl)ethyl]-3-oxoisoindolin-4-yl}carboxamide]
decrease in the keratinocyte MxA protein levels (keratinocyte MxA [4]; 0.25 μM): 19%
decrease in the keratinocyte MxA protein levels (keratinocyte MxA [4]; 0.5 μM): 39%
decrease in keratinocyte MxA levels (keratinocyte MxA [4]; 1 μM): 29%
decrease in keratinocyte MxA levels (keratinocyte MxA [4]; 2 μM): 40%
effect on the cytokeratin levels on the keratinocytes (cytokeratin): no effect
inhibition of the production of IFN-α (IFN-α production [1]; 0.5 μM, versus Control E1): significant inhibition
inhibition of the production of IFN-α (IFN-α production [1]; 5 μM, versus Control E1): significant inhibition
decrease in the keratinocyte MxA level (keratinocyte MxA [3]; 0.25, 0.5 and 1 μM (Examples B1-B3)): 13-15%
inhibition of the production of TNF-α (TNF-α production; [6]): inhibited
inhibition of the production of IFN-α (IFN-α production [2]; [7]): inhibited
effect on the keratinocyte cytokeratin (keratinocyte cytokeratin): no significant effect

CCN(CC)CCCC(C)Nc1c2ccc(Cl)cc2nc2ccc(OC)cc12 (stereo not drawn) [Quinacrine, quinacrine]
inhibition of the production of IFN-α (IFN-α production [1]; 0.5 and 5 μM (Examples E19-E20)): inhibited

Nc1cccc2c1CN(C1CCC(=O)NC1=O)C2=O (stereo not drawn) [Lenalidomide, lenalidomide]
inhibition of the production of IFN-α (IFN-α production [1]; 10 μM, versus Control E1): did not affect

O[C@H]1CC[C@H](Nc2ncc3nc(Nc4c(F)cc(F)cc4F)n([C@H]4CCOC4)c3n2)CC1 [CC-930, reference compound]
inhibition of the production of IFN-α (IFN-α production [1]; 10 μM, versus Control E1): inhibited
decrease in the keratinocyte MxA level (keratinocyte MxA [3]; 1 μM, P<0.05): 32%
inhibition of the production of TNF-α (TNF-α production; [8]): approximately 25%
inhibition of the production of IFN-α (IFN-α production [2]; [8]): approximately 25%
effect on the keratinocyte cytokeratin (keratinocyte cytokeratin): no significant effect
